These are literature values, as cited in patent US8691571B1, “Extending tissue preservation” (University of South Florida, priority 1998, dated 2014).

The series concerns rabbit cornea. The following applies: addition to storage medium; without changing metabolic activity for at least 11 days.

For `CC(O)CC(=O)O` (stereo not drawn) [beta-hydroxy butyrate], the “diminished lactic acid concentration of rabbit cornea” value is listed as 85%.
